Test results from PMC9781803, “Phenotypic and Target-Directed Screening Yields New Acaricidal Alternatives for the Control of Ticks” (Molecules, 2022).
Where two headings read alike, the source gives them in different places. Marks after values point to notes of the source that are not given here.

What was measured:
[1] = system: R. microplus (Mozo strain) larvae; experiment: Larval Immersion Test (LIT); assay type: in vivo
Procedure: (§1) This assay was performed based on the method of Castro-Janer et al., 2011. Fully engorged females of R. microplus (Mozo strain) were incubated in Petri dishes at 27 °C and 85–90% relative humidity for 14 days. […] The tubes were incubated in the same conditions as described above. The larvae were ready for testing after 14 to 21 days from egg-hatching. For the test, the compounds were diluted in DMSO, and were later resuspended in distilled water, always using 15% DMSO of the final solution volume. The concentrations for the different compounds for the final immersion solution are 1 mg/mL for the extracts, and 1 mM for the compounds. […] For the immersion procedure, tubes containing the larvae were placed vertically, without the cotton plug, and the larvae were taken with a brush from the top of the tube, ensuring they were viable. A cluster with a diameter of 2 mm of larvae was collected with a brush, and was later immersed in each solution, as well as in both control solutions, for 10 min. After this time, the solutions were drained, and the larvae were placed in 8.5 cm × 7.5 cm Whatman No. 1 filter papers. The filters were folded in the middle of the 8.5 cm side, and closed with 3 bulldog clips, forming packets. These packets were incubated for 24 h, under the same conditions as described previously, and then the percent of mortality was determined, considering it as the % of the control.

[2] = system: embryonic cell line BME26; experiment: Phenotypic screening on BME26 cell cultures (MTT viability); assay type: cell-based, R. microplus; conditions: for IC50: BME26 cells, 24 h, MTT, read-out: IC50; for inhibition at 100 µM: synthetic compounds at 100 μM, BME26, 24 h, read-out: % of Growth Inhibition
Procedure: The embryonic cell line BME26 from R. microplus (Centro de Biotecnologia, Universidade Federal do Rio Grande do Sul, Porto Alegre, RS, Brazil) was grown as adherent monolayers in a complete medium, as described previously, which consisted of L-15B300 medium supplemented with 5% heat-inactivated Fetal Bovine Serum (FBS) (Gibco Co., Grand Island, NY), 10% Tryptose Phosphate Broth (TPB) (BD), penicillin (100 U/mL), streptomycin ([…], Gibco Co., Grand Island, NY, USA), and 0.1% bovine lipoprotein concentrate (ICN), (pH 7.2). The suspension of embryonic BME26 cells from R. microplus was seeded into 24-well plates (5 × 10^5 cells/well) to a final volume of 500 μL in a complete medium, and allowed to attach. After 24 h incubation at 34 °C, the extracts (100 µg/mL final concentration) and the compounds were added to the final concentrations indicated (1–100 µM), and 0.05% dimethylsulfoxide (DMSO) was used in the negative control wells. After 24 h of treatment, 50 μL of 3-(4,5-dimethylthiazol-2-yl)-2,5-diphenyltetrazolium bromide (MTT) prepared in serum-free medium (5 mg/mL) was added to each well. The media were discarded after 2 additional hours of incubation, and 1 mL of acid-isopropyl alcohol (0.15% HCl in isopropyl alcohol) was added to dissolve the formazan crystals. The mixture was transferred to 1.5 mL tubes, centrifuged at 6000× g for 15 min, and the clear supernatant was collected in new tubes for absorbance measurement at 570 nm using quartz cuvettes in a UVmini-1240 UV–vis spectrophotometer (Shimadzu, Japan). Absorbance values of the control treatment were used for normalization (100% viability). The activity was determined by analysis using OriginLab8.5® sigmoidal regression (% of viable cells compared to the logarithm of the compound concentration). The half-maximal inhibitory concentration (IC50), defined as the drug concentration at which 50% of the cells were viable relative to the control (no drug added), was used as a measurement of activity. These experiments were performed in triplicate for each compound.

[3] = system: J774.1 murine macrophages; experiment: Cytotoxicity assay on murine macrophages (MTT); assay type: cell-based; conditions: for IC50: J774.1, 48 h, read-out: IC50 (µM) Mammalian Cells; for EC50: read-out: EC50 (µM) for Mammalian Cells
Procedure: J774.1 murine macrophages (ATCC, Rockville, MD, USA) were grown in a DMEM culture medium containing 4 mM L-glutamine, and supplemented with 10% FCS. The cells were seeded into a 96-well plate (5 × 10^4 cells in 200 µL culture medium) and incubated at 37 °C in a 5% CO2 atmosphere for 48 h, to allow cell adhesion before drug testing. Afterward, the cells were exposed for 48 h to the compounds (25–400 μM) or the vehicle (0.4% DMSO), and additional controls (cells in medium) were used in each test. Cell viability was then assessed by measuring the mitochondria-dependent reduction of MTT to formazan: for this, MTT in sterile PBS (0.2% glucose), pH 7.4, was added to the macrophages, to a final concentration of 0.1 mg/mL, and the cells were then incubated at 37 °C for 3 h. After removing the medium, the formazan crystals were dissolved in 180 μL of DMSO and 20 μL of MTT buffer (0.1 M glycine, 0.1 M NaCl, 0.5 mM EDTA, pH 10.5), and the absorbance was measured at 560 nm. The IC50 was defined as the drug concentration at which 50% of the cells were viable, relative to the control (no drug added), and was determined by analysis using OriginLab 8.5 Corporation, Northampton, MA, USA, sigmoidal regression (% of viable cells compared to the logarithm of the compound concentration). The tests were performed in triplicate in two independent experiments.

R. microplus = experiment: Acaricidal activity on R. microplus (LIT and AIT, overall statement); assay type: in vivo; conditions: LIT 1 mM and AIT 1.5 mM
Procedure: as §1, with “After immersion, the fully engorged females were lightly dried with absorbent paper. […] The tubes carrying the eggs were closed with hydrophilic cotton, and were returned to the incubator chamber under the same conditions until the eggs hatched. The reproductive efficacy, as well as % control of each compound on R. microplus, was calculated according to published reports. The results were verified in two independent experiments. This” for “This”, “2011.” for “2011. Fully engorged females of R. microplus (Mozo strain) were incubated in Petri dishes at 27 °C and 85–90% relative humidity for 14 days.”, “volume.” for “volume. The concentrations for the different compounds for the final immersion solution are 1 mg/mL for the extracts, and 1 mM for the compounds.”

[4] = target: T1, Homo sapiens triosephosphate isomerase (HsTIM) (Homo sapiens, UniProt P60174); experiment: Enzymatic activity of TIM, coupled enzyme assay; assay type: biochemical
T1 construct: made in house; host or cells: Escherichia coli
Procedure: (§2) R. microplus triosephosphate isomerase (RmTIM) and Homo sapiens triosephosphate isomerase (HsTIM) were expressed in Escherichia coli, and purified as previously described in the literature. Protein concentration was determined by absorbance measurements at 280 nm for RmTIM (ε = 33440 M^−1cm^−1) and HsTIM (ε = 33460 M^−1cm^−1). Enzymatic activity was determined following the reaction of the conversion of glyceraldehyde-3-phosphate to dihydroxyacetone phosphate in a coupled enzyme assay using α-glycerol-phosphate dehydrogenase. The decrease in absorbance at 340 nm was recorded in a multiplate reader Varioskan™ Flash Multimode Reader (Thermo Scientific^TM, Waltham, MA, USA) at 25 °C. The reaction mixture ([…], pH 7.4) contained 100 mM triethanolamine, 10 mM EDTA, 0.2 mM NADH, 1 mM glyceraldehyde-3-phosphate, and 0.9 units of α-glycerol-phosphate dehydrogenase. The reaction was initiated by the addition of 5 ng/mL of the TIM of interest. For the inhibition studies (incubation mixture), TIM was incubated at a concentration of 5 mg/mL in a buffer of pH 7.4 containing 100 mM triethanolamine, 10 mM EDTA, and 10% DMSO at 25 °C for 1 h. The mixture also contained the compounds, dissolved in DMSO, at final concentrations of 10 and 100 μM. After 1 h, 10 μL of the incubation mixture was added to the reaction mixture, to a final volume of 100 μL in a 96-well plate. None of the molecules tested here affected the activity of α-glycerol-phosphate dehydrogenase (checked in situ on the reaction mixture inhibited, with the addition of fresh α-glycerol-phosphate dehydrogenase and running the measurement again). The IC50 value was taken as the concentration of drug needed to reduce the enzymatic activity by 50%, and was analyzed using OriginLab 8.5 Corporation, Northampton, MA, USA, sigmoidal regression (% of enzymatic activity vs. the logarithm of the compound concentration). The tests were performed in triplicate in two independent experiments.

[5] = target: R. microplus triosephosphate isomerase (RmTIM) (Rhipicephalus microplus, UniProt A8B3A8); experiment: biochemical; conditions: for IC50: RmTIM, read-out: IC50
Procedure: as §2

[6] = system: ticks of the population of multiresistant field; experiment: Adult immersion test on multiresistant field population (Table S3); assay type: in vivo, R. microplus; conditions: preliminary study
[7] = system: fully engorged females of the Mozo susceptible strain of R. microplus; experiment: Adult Immersion Test (AIT); assay type: in vivo; conditions: for % of Mortality AIT: compounds 1.5 mM, 15 min immersion, 14 days
Procedure: This essay was performed based on Drummond et al., 1973, as each group of 5 fully engorged females of the Mozo susceptible strain of R. microplus was immersed in 50 mL tubes containing 10 mL of compounds at different concentrations (0.5, 1, 1.5, 2, 3.5 mM) for 15 min in four replicates. Four negative control groups were used (DMSO 10%). After immersion, the fully engorged females were lightly dried with absorbent paper. They were then placed in 100 mm disposable Petri dishes with their respective identification, and immediately incubated at 27 °C in an atmosphere with relative humidity (RH) of 85-90% for 14 days. […] The tubes carrying the eggs were closed with hydrophilic cotton, and were returned to the incubator chamber under the same conditions until the eggs hatched. The reproductive efficacy, as well as % control of each compound on R. microplus, was calculated according to published reports. The results were verified in two independent experiments.

[8] = compounds 1.0 mM, 10 min immersion, 24 h
[9] = Mus musculus, J774.1, cytotoxicity
[10] = 1 h incubation, read-out: % Inhibition of Enzymatic Activity of RmTIM

Sequence of R. microplus triosephosphate isomerase (RmTIM) (A8B3A8 entry or part of it): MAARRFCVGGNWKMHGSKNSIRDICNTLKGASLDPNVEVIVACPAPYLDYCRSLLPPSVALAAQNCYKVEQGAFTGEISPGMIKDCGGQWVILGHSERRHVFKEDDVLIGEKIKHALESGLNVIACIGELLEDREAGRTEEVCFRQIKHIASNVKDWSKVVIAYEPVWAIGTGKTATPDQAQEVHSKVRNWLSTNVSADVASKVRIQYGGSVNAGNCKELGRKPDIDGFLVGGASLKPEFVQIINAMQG
T1 sequence (P60174 whole entry): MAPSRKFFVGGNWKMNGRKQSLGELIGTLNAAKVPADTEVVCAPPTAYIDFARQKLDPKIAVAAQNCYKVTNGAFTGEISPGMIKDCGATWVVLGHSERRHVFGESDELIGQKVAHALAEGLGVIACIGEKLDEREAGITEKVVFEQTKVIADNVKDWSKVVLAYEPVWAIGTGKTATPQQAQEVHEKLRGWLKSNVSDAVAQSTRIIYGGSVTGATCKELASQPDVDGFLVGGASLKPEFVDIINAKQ

IC50 [5]	inhibition at 10 µM [4]	Molecule	inhibition at 100 µM [2]	acaricidal activity (in words) (R. microplus)	% of Mortality LIT [1, 8]	EC50 [3, 9]	other results
		Ivermectin [reference compound]					% of Mortality LIT ([1]; commercial ivermectin control at 0.082 mM): 100%
		Cc1c(/C=C/C(=O)c2ccccc2O)no[n+]1[O-] [compound 1253]	95%	acaricidal potential	50 ± 8%		IC50 [2]: 12 ± 1 µM; IC50 ([3]; Mus musculus): > 50 µM
< 10 µM	0%	O=C1/C(=C2\Nc3ccccc3C2=O)Nc2ccccc21 [compound 879]	9%	did not show reproducible acaricidal activity		> 50 µM	inhibition at 10 µM [5, 10]: 95%
		O=C(/C=C/c1ccccn1)c1ccccc1O [compound 885]	91%	acaricidal potential against R. microplus similar to Amitraz	100 ± 9%		IC50 [2]: 17 ± 4 µM; IC50 ([3]; Mus musculus): > 50 µM; acaricidal activity on multiresistant strain (in words) [6]: had acaricidal activity; LC50 ([7]; adult females): 1000 µM; % of Mortality AIT [7]: 100 ± 9%
23 ± 2 µM	0%	Clc1ccc(-c2csc(/N=C/C=C/c3ccco3)n2)cc1 [compound 910]		did not show reproducible acaricidal activity		> 50 µM	inhibition at 100 µM ([5]; at 100 µM (**), 1 h incubation, read-out: % Inhibition of Enzymatic Activity of RmTIM): 60%
		Cc1ccc(/N=C/N(C)/C=N/c2ccc(C)cc2C)c(C)c1 [Amitraz, reference compound]			100%		% of Mortality AIT [7]: 100%
< 10 µM	0%	O=C1/C(=C/c2ccccc2)CCC/C1=C\c1ccccc1 [compound 799]		did not show reproducible acaricidal activity		> 50 µM	inhibition at 10 µM [5, 10]: 88%

Molecule	IC50 [5]	inhibition at 10 µM [4]	inhibition at 100 µM [2]	acaricidal activity (in words) (R. microplus)	% of Mortality LIT [1, 8]	EC50 [3, 9]	other results
COc1cc(/C=C/C(=O)CC(=O)/C=C/[c-]2cccc2)ccc1O.[Fe+2].c1cc[cH-]c1 [Mar105, [(1E,6E)-7-(4-hydroxy-3-methoxyphenyl)-3,5-dioxo-1,6-heptadien-1-yl]ferrocene]	10 ± 1 µM			did not show reproducible acaricidal activity			EC50 ([3]; cytotoxicity): > 25 µM; % Inhibition of Enzymatic Activity of HsTIM at 10 µM [4]: 0%
COc1cc(/C=C/c2cc(/C=C/[c-]3cccc3)[nH]n2)ccc1O.[Fe+2].c1cc[cH-]c1 [Mar106, 2-Methoxy-4-((E)-2-(5-((E)-ferrocenylvinyl)-1H-pyrazol-3-yl)vinyl)phenol]	25 ± 4 µM			did not show reproducible acaricidal activity			EC50 ([3]; cytotoxicity): > 25 µM; % Inhibition of Enzymatic Activity of HsTIM at 10 µM [4]: 0%; % Inhibition of Enzymatic Activity of RmTIM ([5]; at 100 µM (**), 1 h incubation): 69 ** %
